The values below are quoted from earlier work in patent US11559495B1, “Icariin nano-pharmaceutical formulation” (King Abdulaziz University, priority 2022, dated 2023).

The target of series [1] is cGMP-specific phosphodiesterase type 5 (PDE5) (Homo sapiens, UniProt O76074).
In series [2] the target is T1, MAO-A (Homo sapiens, UniProt P21397).
T1 sequence (P21397 1-527): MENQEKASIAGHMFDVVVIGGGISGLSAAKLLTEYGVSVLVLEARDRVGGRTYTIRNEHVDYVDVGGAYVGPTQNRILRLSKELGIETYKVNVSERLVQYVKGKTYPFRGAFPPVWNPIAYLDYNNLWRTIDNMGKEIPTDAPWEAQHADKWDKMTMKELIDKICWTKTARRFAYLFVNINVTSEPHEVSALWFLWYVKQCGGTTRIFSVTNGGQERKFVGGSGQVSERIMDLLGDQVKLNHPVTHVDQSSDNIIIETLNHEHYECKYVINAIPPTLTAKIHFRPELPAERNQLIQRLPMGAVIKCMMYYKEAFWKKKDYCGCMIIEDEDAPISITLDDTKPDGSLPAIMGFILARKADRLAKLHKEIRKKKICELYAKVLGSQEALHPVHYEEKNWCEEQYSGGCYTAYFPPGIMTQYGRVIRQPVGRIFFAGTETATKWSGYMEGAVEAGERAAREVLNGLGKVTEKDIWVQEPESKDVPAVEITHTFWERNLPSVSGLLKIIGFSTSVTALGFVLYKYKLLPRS

Series [3] deals with T2, MAO-B (Homo sapiens, UniProt P27338).
T2 sequence (P27338 1-520): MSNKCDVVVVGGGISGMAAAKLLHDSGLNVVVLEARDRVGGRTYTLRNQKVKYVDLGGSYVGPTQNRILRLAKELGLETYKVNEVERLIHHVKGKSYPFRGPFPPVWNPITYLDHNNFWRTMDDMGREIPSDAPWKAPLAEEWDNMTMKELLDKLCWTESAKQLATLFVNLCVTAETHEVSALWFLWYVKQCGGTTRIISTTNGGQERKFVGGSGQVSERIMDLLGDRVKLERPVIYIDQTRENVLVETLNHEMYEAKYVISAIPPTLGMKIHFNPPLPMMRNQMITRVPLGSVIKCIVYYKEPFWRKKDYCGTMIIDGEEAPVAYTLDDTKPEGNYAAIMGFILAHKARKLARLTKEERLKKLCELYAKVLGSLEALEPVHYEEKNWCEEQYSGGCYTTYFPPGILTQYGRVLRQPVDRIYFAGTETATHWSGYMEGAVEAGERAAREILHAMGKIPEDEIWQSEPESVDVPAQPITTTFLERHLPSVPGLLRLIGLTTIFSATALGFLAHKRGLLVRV

Take `COc1ccc(-c2oc3c(CC=C(C)C)c(O[C@@H]4O[C@H](CO)[C@@H](O)[C@H](O)[C@H]4O)cc(O)c3c(=O)c2O[C@@H]2O[C@@H](C)[C@H](O)[C@@H](O)[C@H]2O)cc1` [ICA, 7-(β-D-Glucopyranosyloxy)-5-hydroxy-4′-methoxy-8-(3-methylbut-2-en-1-yl)-3-(α-L-rhamnopyranosyloxy)flavone]: the PDE5 inhibition result in series [1] was “inhibitor”. Moreover, in series [2], the MAO-A activity inhibition entry is “inhibited”. Further, in series [3], the MAO-B activity inhibition entry is reported as “inhibited”.
